These results are taken from patent US20170087138A1 (priority 2007, published 2017).

SMILES strings stand for the structures. Counter-ions that a name gives are not always drawn.

A short description of series [1]: Solubility of salts in water, pH of the saturated solution and identity of the precipitate. In kind it is physicochemical. The note with it: for Resulting pH: pH in the saturated solution of the salt; for Precipitate: whether precipitate isolated after solubility determination is identical to the compound dissolved; for solubility (in words): table 3.
Method: If the acid is a liquid it was added neat otherwise it was dissolved in the given solvent prior to addition. After mixing and precipitation stirring was continued overnight and the precipitate collected by filtration. Before drying in vacuum at 30° C. a small reference sample was withdrawn and dried at room temperature without vacuum. This procedure was included in order to test for solvates.
The target of series [2] is T1, human-homomeric 5-HT3A receptors (Homo sapiens, UniProt P46098).
T1 sequence (P46098 24-478): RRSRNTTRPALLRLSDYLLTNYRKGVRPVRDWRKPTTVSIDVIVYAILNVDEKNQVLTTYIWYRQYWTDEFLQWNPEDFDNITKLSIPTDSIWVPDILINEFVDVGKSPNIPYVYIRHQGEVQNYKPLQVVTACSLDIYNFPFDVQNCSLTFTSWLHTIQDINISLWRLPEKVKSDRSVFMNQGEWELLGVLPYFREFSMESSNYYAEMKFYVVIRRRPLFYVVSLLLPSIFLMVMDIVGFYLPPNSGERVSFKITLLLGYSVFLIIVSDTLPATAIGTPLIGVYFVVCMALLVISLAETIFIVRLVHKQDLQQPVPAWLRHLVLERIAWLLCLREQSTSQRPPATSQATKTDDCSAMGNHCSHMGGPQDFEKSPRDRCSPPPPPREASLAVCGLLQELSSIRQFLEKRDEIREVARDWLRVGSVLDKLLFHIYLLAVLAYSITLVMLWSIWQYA
Kind of series: 5-HT3A receptor antagonism, voltage clamp in Xenopus oocytes. The series is classed as cell-based. The settings on record: higher concentrations (100-100000 nM).
Method: The experiments were carried out as follows. […] Oocytes avoid of the follicle layer were selected and incubated for 24 hours in Modified Barth's Saline buffer [88 mM NaCl, 1 mM KCl, 15 mM HEPES, 2.4 mM NaHCO3, 0.41 mM CaCl2, 0.82 mM MgSO4, 0.3 mM Ca(NO3)2] supplemented with 2 mM sodium pyruvate, 0.1 U/l penicillin and 0.1 μg/l streptomycin. Stage IV-IV oocytes were identified and injected with 12-48 nl of nuclease free water containing 14-50 pg of cRNA coding for human 5-HT3A receptors and incubated at 18° C. until they were used for electrophysiological recordings (1-7 days after injection). […] Cells were impaled with agar plugged 0.5-1 MΩ electrodes containing 3 M KCl and voltage clamped at −90 mV by a GeneClamp 500B amplifier. The oocytes were continuously perfused with Ringer buffer and the drugs were applied in the perfusate.

Series [3] deals with extracellular levels of acetylcholine in the prefrontal cortex and ventral hippocampus. The series is described as follows: Microdialysis: extracellular acetylcholine levels in freely-moving rats. The settings on record: rat, FIGS. 10A and 10B. In kind it is in vivo. The method, then:
The experiment was designed to evaluate the effects of compounds of the present invention on extracellular levels of acetylcholine in the prefrontal cortex and ventral hippocampus of freely-moving rats.
Male Sprague-Dawley rats, initially weighing 275-300 g, were used. The animals were housed under a 12-hr light/dark cycle under controlled conditions for regular in-door temperature (21±2° C.) and humidity (55±5%) with food and tap water available ad libitum.
Rats were anaesthetised with hypnorm/dormicum (2 ml/kg) and intracerebral guide cannulas (CMA/12) were stereotaxically implanted into the hippocampus, aiming to position the dialysis probe tip in the ventral hippocampus (co-ordinates: 5.6 mm posterior to bregma, lateral −5.0 mm, 7.0 mm ventral to dura or in the frontal cortex (co-ordinates: 3.2 mm anterior to bregma; lateral, 0.8 mm; 4.0 mm ventral to dura). Anchor screws and acrylic cement were used for fixation of the guide cannulas. The body temperature of the animals was monitored by rectal probe and maintained at 37° C. The rats were allowed to recover from surgery for 2 days, housed singly in cages. On the day of the experiment a microdialysis probe (CMA/12, 0.5 mm diameter, 3 mm length) was inserted through the guide cannula.
The probes were connected via a dual channel swivel to a microinjection pump. […]

For another series, the system named is C57/B6 mice. Kind of series: Formalin model of neuropathic pain. The series is classed as in vivo. The settings on record: in words. The method, then:
The irritation caused by the formalin injection elicits a characteristic biphasic behavioural response, as quantified by the amount of time spent licking the injured paw. The first phase (˜0-10 minutes) represents direct chemical irritation and nociception, whereas the second (˜20-30 minutes) is thought to represent pain of neuropathic origin. The two phases are separated by a quiescent period in which behaviour returns to normal. Measuring the amount of time spent licking the injured paw in the two phases assesses the effectiveness of test compounds to reduce the painful stimuli. Eight C57/B6 mice (ca. 25 g) were tested per group. Table 4 below show the amount of time spent licking the injured paw in the two phases, i.e. 0-5 minutes and 20-30 minutes post formalin injection. The amount of compound administered is calculated as the free base.

A further series relates to healthy volunteers. Kind of series: Multiple dose clinical trial, vital signs including blood pressure. The note with it: up to 30 mg/day. In kind it is in vivo, human. An excerpt:
49 subjects received active compound and 21 subjects received placebo.

Consider `Cc1ccc(Sc2ccccc2C2CCNCC2)cc1` [Phosphoric acid 1:1], for which the “Resulting pH” value in series [1] is recorded as 2.0.
Turning to `Cc1ccc(Sc2ccccc2C2CCNCC2)cc1` [D-tartaric acid, D-2,3-dihydroxy butanedioic acid 1:1], the Precipitate result in series [1] is “Hydrate”.
The same measure, in the same setting: for `Cc1ccc(Sc2ccccc2C2CCNCC2)cc1` [Fumaric acid 1:1] the value was “=start”; for `Cc1ccc(Sc2ccccc2C2CCNCC2)cc1` [Adipicacid, 1,6-hexanedioic acid 2:1], “=start”.
Turning to `Cc1ccc(Sc2ccccc2C2CCNCC2)cc1` [Glutaric acid, 1,5-pentanedioic acid 1:1], in series [1], the “solubility (in words)” value was “exceptionally high solubility” and the Precipitate entry is reported as “=start”.
`Cc1ccc(Sc2ccccc2C2CCNCC2)cc1` [Sebacoinic acid, 1,8-octanedioic acid 2:1]: the Precipitate result in series [1] was “=Start”.
With `Cc1ccc(Sc2ccccc2C2CCNCC2)cc1` (racemic), in series [1], the “solubility (in words)” value is “exceptionally high solubility” and the Precipitate result is “=start (after”.
Turning to `Cc1ccc(Sc2ccccc2C2CCNCC2)cc1` [HBr, 4-(2-(4-tolylsulfanyl)phenyl)-piperidin hydrobromide], in series [1] (hydrobromide), the “Resulting pH” value amounted to 7.0 and the Precipitate result is recorded as “=Start”.
In the case of `Cc1ccc(Sc2ccccc2C2CCNCC2)cc1` [HCl], the Precipitate result in series [1] is “=Start”.
On the same count and under the same terms, for `Cc1ccc(Sc2ccccc2C2CCNCC2)cc1` [Oxalic acid 1:1] the value was “=Start”; for `Cc1ccc(Sc2ccccc2C2CCNCC2)cc1` [Citric acid 2:1], “=Start”.
Take `Cc1ccc(Sc2ccccc2C2CCNCC2)cc1` [Compound I, 4-[2-(4-methylphenylsulfanyl)-phenyl]piperidine]: in series [2], the “maximal current, of the maximal current elicited by 5-HT itself” value is 70-80%. Moreover, the “extra cellular level of acetylcholine in the prefrontal cortex and the hippocampus” value in series [3] was “increase”. Also, in the series with C57/B6 mice, the “effect in the first phase (direct chemical irritation and nociception)” value is “little effect”; the “time spent licking paws in the second phase” value is “clear and dose dependent decrease”. Moreover, in the series with healthy volunteers, the blood pressure entry is listed as “only at the highest dose were there signs of elevated blood pressure”.
In the case of `Cc1ccc(Sc2ccccc2C2CCNCC2)cc1` [Glutamic acid 1:1], the “solubility (in words)” value in series [1] is reported as “exceptionally high solubility”.
